In one data set the test system is HCT116 cell line. As to the kind of experiment: MTS cell viability assay (CellTiter 96), HCT116. The format is cell-based, human. As to conditions: for IC50: HCT116, 48 h exposure, MTS, mean ± SEM; for SI (selectivity index): IC50 of fibroblasts / IC50 of HCT116. How it is done:
(§1) The in vitro cytotoxic potential of complexes Fe1 and Fe2 was evaluated through the CellTiter 96®Aqueous Non-Radioactive Cell Proliferation Assay using MTS, as described in Section 3.3.2 [26].
(§2) The antiproliferative activity of both complexes was evaluated through the exposure of the A2780 cell line to 0.01–50 µM of complexes Fe1 or Fe2 (Figure 3A) and of the HCT116 cell line to 0.1–50 µM of complexes Fe1 or Fe2 (Figure 3B) for 48 h.
(§3) Human colorectal carcinoma (HCT116) and normal dermal fibroblasts cell lines were grown in Dulbecco’s modified Eagle’s medium (DMEM) (Invitrogen Corp., Grand Island, NY, USA) supplemented with 10% (v/v) foetal bovine serum and 1% (v/v) antibiotic/antimycotic solution (Invitrogen Corp.). Human ovarian carcinoma (A2780) cell line was cultivated using the Roswell Park Memorial Institute (RPMI) medium supplemented as DMEM. The supplemented medium is named complete medium. Cells were grown in an incubator with a humidified atmosphere at 5% (v/v) CO2 and 37 °C. All cell lines were purchase from ATCC (ATCC®, American Type Culture Collection, Washington, DC, USA).
(§4) The evaluation of the cytotoxic potential of the complexes Fe1 and Fe2 was obtained through the measurement in vitro of the antiproliferative activity of these complexes. Cells were plated in 96-well plates at 7.5 × 10^4 cells/mL and incubated at 37 °C with 5% (v/v) CO2. After 24 h, the culture medium was replaced with a fresh medium containing 0.01–100 µM of complexes Fe1 or Fe2 and incubated for 48 h, as described previously. DMSO 0.1% (v/v) was used as the vehicle control for all cell lines. The fibroblasts cell line was used as a control of cytotoxicity of the complexes for healthy cells. Cisplatin was used as a positive control (a common chemotherapeutic agent). Cell viability was evaluated using CellTiter 96®Aqueous Non-Radioactive Cell Proliferation Assay (Promega, Madison, WI, USA) using 3-(4,5-dimethylthiazol-2-yl)-5-(3-carboxymethoxyphenyl)-2-(4-sulfophenyl)-2H-tetrazolium, inner salt (MTS), as described previously. In metabolically active cells, enzymes present in the mitochondria catalyse a reaction in which NADPH/ NADH is produced. These enzymes can reduce the MTS reagent into a brownish-coloured product called formazan, which can be quantified by measuring the absorbance at 490 nm. The quantity of product produced is directly proportional to the number of viable cells in culture. The amount of formazan product formed was measured with a Bio-Rad Microplate Reader Model 680 (Bio-Rad, Hercules, CA, USA). Half maximal inhibitory concentration (IC50) was calculated using GraphPad Prism 6 (GraphPad Software, La Jolla, CA, USA). Selectivity index (SI) was calculated for both tumour cell lines by dividing the IC50 of fibroblasts with the IC50 of HCT116 or A2780 for complexes Fe1 and Fe2.

The subject of a further data set is A2780 cell line. As to the kind of experiment: MTS cell viability assay (CellTiter 96), A2780. It counts as cell-based, human. As to conditions: for IC50: A2780, 48 h exposure, MTS, mean ± SEM; for SI (selectivity index): IC50 of fibroblasts / IC50 of A2780. How it is done: as §1, §2, §3, §4
For data set [1], the system named is normal dermal fibroblasts. Briefly: MTS cell viability assay (CellTiter 96), fibroblasts. It counts as cell-based, human. As to conditions: 48 h exposure, mean ± SEM. On the procedure:
The antiproliferative effect of complexes Fe1 and Fe2 was also tested on a nontumor cell line, fibroblasts, to evaluate their antiproliferative activity in healthy cells. For that, a range of concentrations from 0.01 to 100 µM of both complexes was used (Figure 4). As previously observed for the tumour cell lines, a concentration-dependent reduction of cell viability is observed (Figure 3 and Figure 4).
Human colorectal carcinoma (HCT116) and normal dermal fibroblasts cell lines were grown in Dulbecco’s modified Eagle’s medium (DMEM) (Invitrogen Corp., Grand Island, NY, USA) supplemented with 10% (v/v) foetal bovine serum and 1% (v/v) antibiotic/antimycotic solution (Invitrogen Corp.). […]
The evaluation of the cytotoxic potential of the complexes Fe1 and Fe2 was obtained through the measurement in vitro of the antiproliferative activity of these complexes. […] Cell viability was evaluated using CellTiter 96®Aqueous Non-Radioactive Cell Proliferation Assay (Promega, Madison, WI, USA) using 3-(4,5-dimethylthiazol-2-yl)-5-(3-carboxymethoxyphenyl)-2-(4-sulfophenyl)-2H-tetrazolium, inner salt (MTS), as described previously. […] These enzymes can reduce the MTS reagent into a brownish-coloured product called formazan, which can be quantified by measuring the absorbance at 490 nm. The quantity of product produced is directly proportional to the number of viable cells in culture. […]

The nature of data set [2]: Stability in PBS by UV-visible spectrum. The format is physicochemical. The following applies: PBS pH 7.0, room temperature, aerobic, over 48 h. On the procedure: The stability of complexes Fe1 and Fe2 was evaluated over 48 h at room temperature by monitoring their UV–visible spectrum in PBS (pH 7.0) (Figure 2). […] Based on our previous works with Ru carbonyl metal complexes, we speculate that release of CO ligand, 2 in the case of Fe1 and 1 in the case of Fe2, may occur in the first 30 min, as the decrease profile is more pronounced for Fe1 with two CO ligands (Figure 2B,D). We could also speculate that, in the case of Fe1, both CO ligands might be replaced by water molecules, maintaining the previous charge on this novel Fe species (cationic), while in Fe2, the release of the CO ligand and replacement by water molecule would maintain this new Fe species neutral.
Complexes Fe1 and Fe2 solutions were prepared in 10 mM phosphate-buffered solution (PBS) containing 0.15 M NaCl (pH 7). All spectra were recorded for 48 h on a recorded with a Varian-Cary 100 Bio spectrophotometer (Agilent, Santa Clara, CA, USA), using a quartz cuvette with 1 cm path length in a wavelength range from 220 to 500 nm.

The test system of data set [3] is human HCT116 colorectal cancer cells. As to the kind of experiment: Zebrafish embryo xenograft assay. The format is in vivo. The following applies: compared with control. How it is done:
HCT116 human colorectal cancer cell line was incubated in standard conditions in a humidified incubator at 37 °C and 5% CO2 until a confluence of 70–80% was reached. Afterwards, the cells were concentrated and labelled with DiI and injected in the circulation (Duct of Cuvier) of 48 hpf zebrafish embryos in order to assay the proliferation in vivo of the cells exposed to Fe1 and Fe2. Fe1 and Fe2 (5 μM and 0.25 μM, respectively) were dissolved in the water at 1-day post injection (dpi) to allow the recovery of the embryos from the injection in the first 24 h and maintained until the end of the experiment at 3 dpi. Imaging of the embryos was performed at 1 dpi and 3 dpi to quantify the fluorescence and area of the cells in the caudal hematopoietic tissue (CHT) in the tail of the embryos, where cells invade and grow, and measure their proliferation over time to assess the inhibitory effect of the compounds assayed over the cells.
The results were calculated based on a comparison between 3 dpi and 1 dpi time points and normalised at 3 dpi against control conditions due to the nature of the lipophilic dye in the proliferation of the cells. […]
At 1 dpi, the embryos were imaged, and the compound (Fe1 and Fe2) was added to the water. […] Imaging of the embryos was performed using a fluorescence stereomicroscope (AZ-100, Nikon, Tokyo, Japan). […]

The nature of data set [4]: Solubility in buffer aqueous media. The format is physicochemical. The following applies: fully soluble on adding DMSO (final not above 0.1% v/v).
The subject of another data set is zebrafish embryos. As to the kind of experiment: Fish embryo acute toxicity test (FET). The format is in vivo, zebrafish (Danio rerio). The following applies: for LC50: early blastula stage up to 72 hpf, Logit and Probit analyses; for LOEC (lowest observed effect concentration) / NOEC (no observed effect concentration): up to 72 hpf. How it is done:
In addition, the mortality distribution obtained for each compound allowed the accurate estimation of the LC50 (Figure 7). […] For this reason, Fe1 and Fe2 compounds were analysed in vivo using colorectal HCT116 zebrafish xenograft.
The wild-type zebrafish were housed in a water recirculation system under controlled physicochemical conditions of temperature (26 ± 2 °C), pH (7–7.5), and conductivity (400–600 µS/cm). The fertilised eggs were collected after natural spawning and housed in Petri dishes until their use. Next, eggs were exposed to Fe1 and Fe2 and dissolved in water containing 1% DMSO. Then, toxicological analyses were carried out based on the approved standard OECD TG 236—fish embryo toxicity test (FET), with modifications. For the study, four replicates of 12 embryos were distributed for each of the 5 concentrations tested for compounds; for Fe1, the concentrations used were 15, 20, 25, 30, 35 µM), and for Fe2 were 1, 5, 10, 15, 20 µM. The performed zebrafish toxicity experiments were approved by the animal care and use committee of the University of Santiago de Compostela and the standard protocols of Spain (CEEA-LU-003 and […]). The toxicity results data were analysed by probit analysis using ToxRat Software (ToxRat Solutions. 2003. ToxRat. Software for statistical analysis of bioassays. Alsdorf, Germany).

Turning to `N.N.[Cl][Pt][Cl]` [Cisplatin, reference compound], the IC50 stood at 15.6 ± 5.3 µM with HCT116 cell line and 1.9 ± 0.2 µM with A2780 cell line.

On to Cp(IMes)Fe(CO)I [Fe2], for which, in the data set on HCT116 cell line, the IC50 stood at 3.26 ± 0.1 µM and the “SI (selectivity index)” value was 12.9. In data set [1], this molecule displayed an IC50 of 42 ± 0.75 µM. In the data set on A2780 cell line, the 50% inhibitory concentration (IC50) was determined as 2.91 ± 0.51 µM and the “SI (selectivity index)” value turned out to be 14.4. Also, the “stability (360 nm band)” value in data set [2] was “a lower decrease of the 360 nm peak intensity occurs within the first 30 min”. The “proliferation of HCT116 cells in vivo” value in data set [3] (0.25 μM dissolved in the water from 1 dpi to 3 dpi) is reported as “reduce the proliferation of human HCT116 colorectal cancer cells in vivo”. Besides, in data set [4], the solubility entry is “insoluble in buffer aqueous media”. In the data set on zebrafish embryos, the LC50 came to 6.86 µM, the “LOEC (lowest observed effect concentration)” value stood at 5 µM and the “NOEC (no observed effect concentration)” value was found to be 1 µM.

[Cp(IMes)Fe(CO)2]I [Fe1]: in the data set on HCT116 cell line, the IC50 turned out to be 0.87 ± 0.09 µM and the “SI (selectivity index)” value stood at 27.1. In data set [1], the IC50 was 23.61 ± 0.14 µM. In the data set on A2780 cell line, half-maximal inhibition (IC50) required 1.34 ± 0.25 µM and the “SI (selectivity index)” value is 17.7. For the same molecule, the “stability (360 nm band)” value in data set [2] is given as “rapidly transformed into a new Fe species that is then stable, at least, until 24 h”. For the same molecule, the “proliferation of HCT116 cells in vivo” value in data set [3] (5 μM dissolved in the water from 1 dpi to 3 dpi) is listed as “reduce the proliferation of human HCT116 colorectal cancer cells in vivo”. In data set [4], the solubility entry is reported as “insoluble in buffer aqueous media”. In the data set on zebrafish embryos, the LC50 is 24.6 µM, the “LOEC (lowest observed effect concentration)” value is listed as 20 µM and the “NOEC (no observed effect concentration)” value is on record as 15 µM.

The values above are taken from article PMC8470334, “N-Heterocyclic Carbene Iron Complexes as Anticancer Agents: In Vitro and In Vivo Biological Studies” (Molecules, 2021).
